Results published in patent US20160193299A1, “MODIFIED NUCLEOSIDE, NUCLEOTIDE, AND NUCLEIC ACID COMPOSITIONS” (Moderna Therapeutics, Inc., priority 2011, published 2016).
Blank lines part the entries; values can stand above or below the molecule they belong to.

Columns and labels:
[1] = system: Factor IX protein; assay: Factor IX mRNA transfected in serum-free media (2D HPLC / MALDI peptide detection); type: cell-based, Human; details: 8 peptides detected, 7 unique to Factor IX
Excerpt: The cell culture supernatant was collected and subjected to trypsin digestion before undergoing 2-dimensional HPLC separation of the peptides. Matrix-assisted laser desorption/ionization was used to detect the peptides. 8 peptides were detected and 7 of the detected peptides are unique to Factor IX.

[2] = system: female Sprague Dawley rats; assay: In vivo delivery of modified RNA: G-CSF protein in rat serum (I.M.); details: I.M. 400 ug in 100 ul, 5% sucrose, 8 hours after injection
Experimental: Protein production of modified mRNA was evaluated by delivering modified G-CSF mRNA or modified Factor IX mRNA to female Sprague Dawley rats (n=6). […] Blood was collected 8 hours after injection and the G-CSF protein level in serum was measured by ELISA.

[3] = system: Female BALB/C mice; assay: In vivo detection of innate immune response: human G-CSF and mouse IFN-alpha in serum after I.M. injection; details: I.M., 8 hours after dosing
Experimental: Blood is collected at 8 hours after dosing and using ELISA the protein levels of G-CSF and interferon-alpha (IFN-alpha) is determined by ELISA and are shown in Table 81.

[4] = system: mice; assay: In vivo cytokine expression study (serum IFN-alpha); details: mouse serum; I.M. 200 ug mRNA; after 8 hours
Experimental: After 8 hours serum was collected from the mice and analyzed for interferon-alpha (IFN-alpha) expression.

[5] = system: IFN-alpha; assay: Example 45 cytokine study in PBMC, IFN-alpha ELISA; type: cell-based, human; details: for IFN-alpha signal - 2 donor average: PBMC
Experimental: (§1) The plates were then incubated at 37 C.
(§2) Each condition was done in duplicate.
(§3) Shown in Tables 69 and 70 are the average from 2 separate PBMC donors of the G-CSF and IFN-alpha production over time as measured by specific ELISA.

[6] = system: TNF-alpha; assay: Example 46A percent-modified G-CSF mRNA transfected in PBMC, TNF-alpha ELISA; type: cell-based, human
Experimental: The supernatant was harvested and run by ELISA 22 hours after transfection to determine the protein expression.

[7] = system: rat myoblast (L6 line); assay: Example 44 signal sequence exchange study, secreted G-CSF ELISA; type: cell-based; details: RM, 250 ng modified mRNA, supernatant after 24 hrs
Excerpt: (§4) These variants included the G-CSF constructs encoding either the wild-type N terminal secretory signal peptide sequence ([…]; SEQ ID NO: 21), no secretory signal peptide sequence, or secretory signal peptide sequences taken from other mRNAs. These included sequences where the wild type GCSF signal peptide sequence was replaced with the signal peptide sequence of either: human α-1-anti trypsin (AAT) ([…]; SEQ ID NO: 22), human Factor IX (FIX) ([…]; SEQ ID NO: 23), human Prolactin (Prolac) ([…]; SEQ ID NO: 24), or human Albumin (Alb) ([…]; SEQ ID NO: 25).
(§5) 250 ng of modified mRNA encoding each G-CSF variant was transfected into HEK293A (293A in the table), mouse myoblast (MM in the table) (C2C12, CRL-1772, ATCC) and rat myoblast (RM in the table) (L6 line, CRL-1458, ATCC) cell lines in a 24 well plate using 1 ul of Lipofectamine 2000 (Life Technologies), each well containing 300,000 cells. […] The data shown in Table 68 reveal that cells transfected with G-CSF mmRNA encoding the Albumin signal peptide secrete at least 12 fold more G-CSF protein than its wild type counterpart.

[8] = system: mouse myoblast (C2C12); assay: as above; type: cell-based; details: MM, 250 ng modified mRNA, supernatant after 24 hrs
Excerpt: as §4, §5

[9] = system: Factor IX; assay: Example 39 in vivo study of Factor IX mmRNA IM, serum Factor IX; details: mice IM, 2×100 ug/mouse, 13 hours
Experimental: Human Factor IX mmRNA (Gen1; fully modified 5-methycytosine and pseudouridine) formulated in formulation buffer was delivered to mice via intramuscular injection.
The mice were bled at 13 hours after the intramuscular injection to determine the concentration of human the polypeptide in serum in pg/mL.

[10] = system: Factor IX; assay: Example 16 lipid nanoparticle in vivo study, serum Factor IX ELISA; parameters: species or system mice
Experimental: Mice were sacrificed at 8 hrs after dosing. […] Protein expression was determined by ELISA.
As used in Table 30, the symbol “˜” means about.

[11] = system: HEK293A; assay: Example 44 signal sequence exchange study, secreted G-CSF ELISA; type: cell-based, human; details: 293A, 250 ng modified mRNA, supernatant after 24 hrs
Excerpt: as §4, §5

[12] = system: human PBMC; assay: Example 45 cytokine study in PBMC, G-CSF production ELISA; type: cell-based; details: Lipofectamine 2000
Experimental: as §1, §2, §3
In the G-CSF ELISA, background signal from the Lipofectamine 2000 untreated condition was subtracted at each timepoint. […] Many other cytokines were not affected by either modification.

[13] = system: neutrophil count; assay: Example 40 multi-site IM and SC administration of G-CSF mRNA, neutrophil count; type: in vivo; details: mice, day 3
Experimental: Injection of four doses or 2×50 ug (two sites) daily for three days (24 hrs interval) was performed. The fourth dose was administered 6 hrs before blood collection and CBC analysis. […] The mice were bled at 72 hours after the first mRNA injection (6 hours after the last mRNA dose) to determine the effect of mRNA-encoded human G-CSF on the neutrophil count. The dosing regimen is shown in Table 63 as are the resulting neutrophil counts (thousands/uL). In Table 63, an asterisks (*) indicate statistical significance at p<0.05.

[14] = system: human G-CSF; assay: Example 32C human G-CSF modified RNA lipoplex vs saline comparison IM/SC, serum G-CSF ELISA; type: in vivo, C57/BL6 mice; details: mouse serum, I.M. or S.C., 13 hours
Experimental: A formulation containing 100 μg of either modified human G-CSF mRNA lipoplexed with 30% by volume of RNAIMAX™ with a 5-methylcytosine (5mc) and a pseudouridine (ψ) modification (G-CSF-Gen1-Lipoplex), modified human G-CSF mRNA with a 5mc and w modification in saline (G-CSF-Gen1-Saline), modified human G-CSF mRNA with a N1-5-methylcytosine (N1-5mc) and a w modification lipoplexed with 30% by volume of RNAIMAX™ (G-CSF-Gen2-Lipoplex), modified human G-CSF mRNA with a N1-5mc and ψ modification in saline (G-CSF-Gen2-Saline), modified luciferase with a 5mc and ψ modification lipoplexed with 30% by volume of RNAIMAX™ (Luc-Lipoplex), or modified luciferase mRNA with a a 5mc and ψ modification in saline (Luc-Saline) was delivered intramuscularly (I.M.) or subcutaneously (S.C.) and a control group for each method of administration was giving a dose of 80 uL of the formulation buffer (F. Buffer) to C57/BL6 mice. 13 hours post injection serum and tissue from the site of injection were collected from each mouse and analyzed by G-CSF ELISA to compare human G-CSF protein levels. The results of the human G-CSF protein in mouse serum from the intramuscular administration and the subcutaneous administration results are shown in Table 55.

Molecule: Factor IX Gen 1: Factor IX mRNA SEQ ID NO: 10, Cap1, fully modified with 5-methylcytosine and pseudouridine
expression of Factor IX protein [1]: able to express full-length Factor IX protein
G-CSF protein [2]: 2.25 pg/mL

IFN-alpha signal - 2 donor average ([5]; 2 Hr): 39.1 pg/mL
IFN-alpha signal - 2 donor average ([5]; 4 Hr): 151.3 pg/mL
IFN-alpha signal - 2 donor average ([5]; 8 Hr): 278.4 pg/mL
IFN-alpha signal - 2 donor average ([5]; 20 Hr): 362.2 pg/mL
IFN-alpha signal - 2 donor average ([5]; 44 Hr): 208.1 pg/mL
TNF-alpha Expression [6]: 256.6 pg/mL
Molecule: CCOCc1nc2c(N)nc3ccccc3c2n1CC(C)(C)O [Formulation R-848, reference compound]
G-CSF protein ([3]; human G-CSF in mouse serum, 200 ug/mouse mRNA (R848 75 ug) in 5% sucrose): 3.4 pg/mL
IFN-alpha expression ([3]; mouse IFN-alpha in serum, 200 ug/mouse mRNA (R848 75 ug)): 40.97 pg/mL
IFN-alpha [4]: 40.971 pg/mL

Molecule: Factor IX: human Factor IX mRNA SEQ ID NO: 10, polyA ~160 nt, Cap1, fully modified with 5-methylcytosine and pseudouridine
secreted G-CSF protein [7]: 11675 pg/mL
secreted G-CSF protein [8]: 6175 pg/mL
Factor IX in serum [9]: 1600 pg/mL
Factor IX Serum Concentration 8-12 hours after administration ([10]; IM, 2 × 100 ug): ~1.6 ng/mL
Factor IX Serum Concentration 8-12 hours after administration ([10]; IV (LNP), 1 ug): ~40 ng/mL
Factor IX Serum Concentration 8-12 hours after administration ([10]; IV (LNP), 10 ug): ~400 ng/mL
Factor IX Serum Concentration 8-12 hours after administration ([10]; IV (LNP), 100 ug): ~3,000-10,000 ng/ml
Factor IX Protein Expression, Conc ([10]; mice IV LNP, 10 ug, serum 8 hrs): 383.04 ng/mL
Factor IX Protein Expression, Conc ([10]; mice IV LNP, 100 ug, serum 8 hrs, dilution 50x): 3247.75 ng/mL
Factor IX Protein Expression, Conc ([10]; mice IV LNP, 100 ug, serum 8 hrs, dilution 250x): 11177.20 ng/mL
Factor IX protein expression ([10]; mice IV LNP, 100 ug, serum 8 hrs, range given in text): 3000 to 11000 ng/mL
secreted G-CSF protein [11]: 11675 pg/mL

B1: Gen2 G-CSF mRNA: human G-CSF mRNA SEQ ID NO: 6 fully modified with 5-methylcytosine and N1-methylpseudouridine (nucleic acid, listed as Homo sapiens)
chain: GGGAAAUAAGAGAGAAAAGAAGAGUAAGAAGAAAUAUAAGAGCCACCAUGGCCGGUCCCGCGACCCAAAGCCCCAUGAAACUUAUGGCCCUGCAGUUGCUGCUUUGGCACUCGGCCCUCUGGACAGUCCAAGAAGCGACUCCUCUCGGACCUGCCUCAUCGUUGCCGCAGUCAUUCCUUUUGAAGUGUCUGGAGCAGGUGCGAAAGAUUCAGGGCGAUGGAGCCGCACUCCAAGAGAAGCUCUGCGCGACAUACAAACUUUGCCAUCCCGAGGAGCUCGUACUGCUCGGGCACAGCUUGGGGAUUCCCUGGGCUCCUCUCUCGUCCUGUCCGUCGCAGGCUUUGCAGUUGGCAGGGUGCCUUUCCCAGCUCCACUCCGGUUUGUUCUUGUAUCAGGGACUGCUGCAAGCCCUUGAGGGAAUCUCGCCAGAAUUGGGCCCGACGCUGGACACGUUGCAGCUCGACGUGGCGGAUUUCGCAACAACCAUCUGGCAGCAGAUGGAGGAACUGGGGAUGGCACCCGCGCUGCAGCCCACGCAGGGGGCAAUGCCGGCCUUUGCGUCCGCGUUUCAGCGCAGGGCGGGUGGAGUCCUCGUAGCGAGCCACCUUCAAUCAUUUUUGGAAGUCUCGUACCGGGUGCUGAGACAUCUUGCGCAGCCGUGAAGCGCUGCCUUCUGCGGGGCUUGCCUUCUGGCCAUGCCCUUCUUCUCUCCCUUGCACCUGUACCUCUUGGUCUUUGAAUAAAGCCUGAGUAGGAAG
modifications: 5mC/N1-methylpseudouridine modified
G-CSF production [12]: highest level of G-CSF production
innate immune recognition, cytokine production (IFN-alpha and others) ([5]; human PBMC, Lipofectamine 2000): did not significantly increase cytokines
increase in neutrophil count above control ([13]; intramuscular): two fold increase
increase in neutrophil count above control ([13]; subcutaneous): two fold increase
human G-CSF protein production relative to 5-methylcytosine/pseudouridine modified mRNA [14]: increased human G-CSF protein production
